Patent publication US6821999B2 (priority 2001, dated 2004)
Like-named read-outs stand apart in the source and are kept apart here.

Legend:
Format in all cases: cell-based, Staphylococcus aureus
S. aureus (MN8) = conditions: for TSST-1 produced compared to the control: S. aureus MN8, in the presence of the compound
S. aureus FRI-1169 = conditions: S. aureus FRI-1169, in the presence of triclosan
S. aureus FRI-1187 = conditions: S. aureus FRI-1187, in the presence of triclosan

Structure (SMILES) | Reduction of Toxin (%) (S. aureus (MN8)) | reduced the amount of toxin produced (S. aureus (MN8)) | TSST-1 produced compared to the control (S. aureus (MN8)) | Reduction of Toxin (%) (S. aureus (MN8); S. aureus MN8, test compound 2 μg/mL, 24 h, vs methanol control) | Reduction of Toxin (%) (S. aureus (MN8); S. aureus MN8, test compound 0.01 μg/mL, 24 h, vs methanol control) | TSST-1 produced compared to the control (S. aureus FRI-1169) | TSST-1 produced compared to the control (S. aureus FRI-1187)
Oc1ccc(Cc2ccccc2)cc1 [4-Hydroxydiphenyl-methane, 4-hydroxydiphenyl methane] | 24 | about 24% | – | – | – | – | –
Oc1c(Cl)cc(Cl)c(Cl)c1Cc1c(O)c(Cl)cc(Cl)c1Cl [Hexachlorophene, hexachlorophene] | – | – | significantly less | 68 | – | – | –
Oc1cc(Cl)ccc1Oc1ccc(Cl)cc1Cl [Triclosan, triclosan] | – | – | significantly less | – | 88 | produced less TSST-1 | produced less TSST-1
